Test results taken from the supplement of paper PMC10307832.

Assays:
Experiment in all cases: relative viability (nuclei count vs DMSO), 5 days (fraction); higher = more cells survive
HCC-827 = test system: HCC-827
How it was run: (§1)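 The day after seeding in 1536-well plates, lung cancer cell lines were treated by pin tool with a single drug, or with a fixed anchor-drug dose together with five library-drug doses (not always all listed) in √10 steps. After 5 days, a combined fix-and-stain solution (final 0.05% Triton X-100, 1% formaldehyde, 1 ug/ml Hoechst) was added. Nuclei counted on 4× images gave relative viability as treated counts over vehicle counts, reported as the median of duplicate plates.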

NCI-H2170 = test system: NCI-H2170
How it was run: as §1

NCI-H522 = test system: NCI-H522
How it was run: as §1

BEN = test system: BEN
How it was run: as §1

LXF-289 = test system: LXF-289
How it was run: as §1

NCI-H1563 = test system: NCI-H1563
How it was run: as §1

HCC-44 = test system: HCC-44
How it was run: as §1

HARA = test system: HARA
How it was run: as §1

NCI-H727 = test system: NCI-H727
How it was run: as §1

COR-L 105 = test system: COR-L 105
How it was run: as §1

PC-3 [JPC-3] = test system: PC-3 [JPC-3]
How it was run: as §1

HOP-62 = test system: HOP-62
How it was run: as §1

LCLC-97TM1 = test system: LCLC-97TM1
How it was run: as §1

NCI-H2009 = test system: NCI-H2009
How it was run: as §1

NCI-H1993 = test system: NCI-H1993
How it was run: as §1

LC-2-ad = test system: LC-2-ad
How it was run: as §1

NCI-H2087 = test system: NCI-H2087
How it was run: as §1

PC-14 = test system: PC-14
How it was run: as §1

HCC-15 = test system: HCC-15
How it was run: as §1

HCC-366 = test system: HCC-366
How it was run: as §1

LU99A = test system: LU99A
How it was run: as §1

COR-L23 = test system: COR-L23
How it was run: as §1

NCI-H2126 = test system: NCI-H2126
How it was run: as §1

SK-MES-1 = test system: SK-MES-1
How it was run: as §1

CAL-12T = test system: CAL-12T
How it was run: as §1

## CCCCCCCCCCCC1=C(O)C(=O)C=C(O)C1=O [Embelin] + COc1cccc2cc(-c3nc([C@H]4CC[C@H](C(=O)O)CC4)n4ncnc(N)c34)[nH]c12 [OSI-027] (partner 0.5 µM)
HCC-827; first compound 0.08 µM
  relative viability: 0.749
HCC-827; first compound 0.8 µM
  relative viability: 0.797
HCC-827; first compound 2.53 µM
  relative viability: 0.836
HCC-827; first compound 8 µM
  relative viability: 0.866
NCI-H2170; first compound 0.08 µM
  relative viability: 0.796
NCI-H2170; first compound 0.8 µM
  relative viability: 0.733
NCI-H2170; first compound 2.53 µM
  relative viability: 0.753
NCI-H2170; first compound 8 µM
  relative viability: 0.737
NCI-H522; first compound 0.08 µM
  relative viability: 0.677
NCI-H522; first compound 0.8 µM
  relative viability: 0.714
NCI-H522; first compound 2.53 µM
  relative viability: 0.752
NCI-H522; first compound 8 µM
  relative viability: 0.641
BEN; first compound 0.08 µM
  relative viability: 0.287
BEN; first compound 0.8 µM
  relative viability: 0.341
BEN; first compound 2.53 µM
  relative viability: 0.338
BEN; first compound 8 µM
  relative viability: 0.289
LXF-289; first compound 0.08 µM
  relative viability: 0.796
LXF-289; first compound 0.8 µM
  relative viability: 0.952
LXF-289; first compound 2.53 µM
  relative viability: 0.801
LXF-289; first compound 8 µM
  relative viability: 0.873
NCI-H1563; first compound 0.08 µM
  relative viability: 0.65
NCI-H1563; first compound 0.8 µM
  relative viability: 0.772
NCI-H1563; first compound 2.53 µM
  relative viability: 0.71
NCI-H1563; first compound 8 µM
  relative viability: 0.758
HCC-44; first compound 0.08 µM
  relative viability: 0.481
HCC-44; first compound 0.8 µM
  relative viability: 0.479
HCC-44; first compound 2.53 µM
  relative viability: 0.344
HCC-44; first compound 8 µM
  relative viability: 0.323
HARA; first compound 0.08 µM
  relative viability: 0.5
HARA; first compound 0.8 µM
  relative viability: 0.701
HARA; first compound 2.53 µM
  relative viability: 0.601
HARA; first compound 8 µM
  relative viability: 0.526
NCI-H727; first compound 0.08 µM
  relative viability: 0.659
NCI-H727; first compound 0.8 µM
  relative viability: 0.79
NCI-H727; first compound 2.53 µM
  relative viability: 0.494
NCI-H727; first compound 8 µM
  relative viability: 0.709
COR-L 105; first compound 0.08 µM
  relative viability: 0.693
COR-L 105; first compound 0.8 µM
  relative viability: 0.836
COR-L 105; first compound 2.53 µM
  relative viability: 0.602
COR-L 105; first compound 8 µM
  relative viability: 0.621
PC-3 [JPC-3]; first compound 0.08 µM
  relative viability: 0.759
PC-3 [JPC-3]; first compound 0.8 µM
  relative viability: 0.752
PC-3 [JPC-3]; first compound 2.53 µM
  relative viability: 0.829
PC-3 [JPC-3]; first compound 8 µM
  relative viability: 0.867
HOP-62; first compound 0.08 µM
  relative viability: 0.88
HOP-62; first compound 0.8 µM
  relative viability: 0.922
HOP-62; first compound 2.53 µM
  relative viability: 0.931
HOP-62; first compound 8 µM
  relative viability: 0.812
LCLC-97TM1; first compound 0.08 µM
  relative viability: 0.376
LCLC-97TM1; first compound 0.8 µM
  relative viability: 0.638
LCLC-97TM1; first compound 2.53 µM
  relative viability: 0.494
LCLC-97TM1; first compound 8 µM
  relative viability: 0.589
NCI-H2009; first compound 0.08 µM
  relative viability: 0.728
NCI-H2009; first compound 0.8 µM
  relative viability: 0.736
NCI-H2009; first compound 2.53 µM
  relative viability: 0.492
NCI-H2009; first compound 8 µM
  relative viability: 0.594
NCI-H1993; first compound 0.08 µM
  relative viability: 0.577
NCI-H1993; first compound 0.8 µM
  relative viability: 0.556
NCI-H1993; first compound 2.53 µM
  relative viability: 0.606
NCI-H1993; first compound 8 µM
  relative viability: 0.547
LC-2-ad; first compound 0.08 µM
  relative viability: 0.85
LC-2-ad; first compound 0.8 µM
  relative viability: 1.02
LC-2-ad; first compound 2.53 µM
  relative viability: 0.97
LC-2-ad; first compound 8 µM
  relative viability: 0.516
NCI-H2087; first compound 0.08 µM
  relative viability: 0.5
NCI-H2087; first compound 0.8 µM
  relative viability: 0.543
NCI-H2087; first compound 2.53 µM
  relative viability: 0.656
NCI-H2087; first compound 8 µM
  relative viability: 0.628
PC-14; first compound 0.08 µM
  relative viability: 0.81
PC-14; first compound 0.8 µM
  relative viability: 1.13
PC-14; first compound 2.53 µM
  relative viability: 1.24
PC-14; first compound 8 µM
  relative viability: 0.848
HCC-15; first compound 0.08 µM
  relative viability: 0.666
HCC-15; first compound 0.8 µM
  relative viability: 0.758
HCC-15; first compound 2.53 µM
  relative viability: 0.721
HCC-15; first compound 8 µM
  relative viability: 0.625
HCC-366; first compound 0.08 µM
  relative viability: 0.926
HCC-366; first compound 0.8 µM
  relative viability: 1.16
HCC-366; first compound 2.53 µM
  relative viability: 1.03
HCC-366; first compound 8 µM
  relative viability: 0.905
LU99A; first compound 0.08 µM
  relative viability: 0.323
LU99A; first compound 0.8 µM
  relative viability: 0.358
LU99A; first compound 2.53 µM
  relative viability: 0.27
LU99A; first compound 8 µM
  relative viability: 0.282
COR-L23; first compound 0.08 µM
  relative viability: 0.756
COR-L23; first compound 0.8 µM
  relative viability: 0.92
COR-L23; first compound 2.53 µM
  relative viability: 0.923
COR-L23; first compound 8 µM
  relative viability: 0.921
NCI-H2126; first compound 0.08 µM
  relative viability: 0.666
NCI-H2126; first compound 0.8 µM
  relative viability: 0.746
NCI-H2126; first compound 2.53 µM
  relative viability: 0.804
NCI-H2126; first compound 8 µM
  relative viability: 0.795
SK-MES-1; first compound 0.08 µM
  relative viability: 0.648
SK-MES-1; first compound 0.8 µM
  relative viability: 0.66
SK-MES-1; first compound 2.53 µM
  relative viability: 0.572
SK-MES-1; first compound 8 µM
  relative viability: 0.521
CAL-12T; first compound 0.08 µM
  relative viability: 0.538
CAL-12T; first compound 0.8 µM
  relative viability: 0.817
CAL-12T; first compound 2.53 µM
  relative viability: 0.513
CAL-12T; first compound 8 µM
  relative viability: 0.665
